Experiments:
[1] = test system: angiotensin II-induced pressor responses; assay: Test C: antagonism of angiotensin II-induced pressor responses in anaesthetised or conscious rats (in vivo); conditions: iv, rat, i.v. administration
Procedure: Test C: This in vivo test involves using terminally-anaesthetised or conscious rats in which an arterial catheter has been implanted under anaesthesia for the measurement of changes in blood pressure. The AII antagonistic effects of the test compound following oral or parenteral administration, are assessed against angiotensin II-induced pressor responses. To ensure that the effect is specific, the effect of the test compound on vasopressin-induced pressor responses may also be determined in the same preparation.

[2] = molecular target: T1, angiotensin II (AII) receptors, cell surface membrane fraction of guinea pig adrenal gland (Cavia porcellus, UniProt Q9WV26); assay: Test A: displacement of radiolabelled AII binding to adrenal membrane fraction (in vitro); conditions: guinea pig adrenal membranes, read-out: IC50 (concentration for 50% displacement of radiolabelled AII binding)
T1 construct: from tissue; host or cells: guinea pig adrenal gland, cell surface membrane fraction
T1 sequence (Q9WV26 1-359): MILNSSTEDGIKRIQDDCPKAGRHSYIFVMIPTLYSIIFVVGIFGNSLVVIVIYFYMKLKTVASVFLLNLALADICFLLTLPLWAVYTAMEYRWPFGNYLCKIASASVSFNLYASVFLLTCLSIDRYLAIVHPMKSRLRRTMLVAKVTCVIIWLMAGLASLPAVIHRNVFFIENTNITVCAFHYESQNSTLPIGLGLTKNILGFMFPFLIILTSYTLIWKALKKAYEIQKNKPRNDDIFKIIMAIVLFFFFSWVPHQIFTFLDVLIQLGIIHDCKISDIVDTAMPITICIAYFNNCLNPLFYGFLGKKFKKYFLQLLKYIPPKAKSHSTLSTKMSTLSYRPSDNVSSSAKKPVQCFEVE
Procedure: Test A: This in vitro procedure involves the incubation of the test compound initially at a concentration of 100 micromolar (or less) in a buffered mixture containing fixed concentrations of radiolabelled AII and a cell surface membrane fraction prepared from a suitable angiotensin target tissue. In this test, the source of cell surface membranes is the guinea pig adrenal gland which is well known to responsd to AII. Interaction of the radiolabelled AII with its receptors (assessed as radiolabel bound to the particulate membrane fraction following removal of unbound radiolabel by a rapid filtration procedure such as is standard in such studies) is antagonized by compounds which also bind to the membrane receptor sites and the degree of antagonism (observed in the test as displacement of membrane-bound radioactivity) is determined readily by comparing the receptor-bound radioactivity in the presence of the test compound at the specified test concentration with a control value determined in the absence of the test compound. Using this procedure compounds showing at least 50% displacement of radiolabelled AII binding at a concentration of 10^-4 M are retested at lower concentrations to determine their potency. […]

- IC50 [2]: 8.84 nM
SMILES: Cc1cc2c(ccc(=O)n2Cc2ccc(-c3ccccc3-c3nnn[nH]3)cc2)c(C)n1.Cl [Example I, 5,7-dimethyl-1[(2'-(1H-tetrazol-5-yl)biphenyl-4-yl)methyl]-1,6-naphthyridin-2(1H)-one hydrochloride]
- ED50 [1]: 0.048 mg/kg
